Assay results from US20070037875A1, “Genistein inhibition of transthyretin amyloidosis” (The Scripps Research Institute, priority 2005, published 2007).
Read-outs that look alike come from different tables or passages of the source.

Assays:
[1] = target: T1, WT TTR (Homo sapiens, UniProt P02766); assay: Stagnant transthyretin aggregation (fibril formation) assay, turbidity; type: biochemical
T1 construct: made in house; host or cells: E. coli
Method: Stagnant aggregation assays were performed as described previously (Lashuel, H. A.; et al. Biochemistry 1999, 38, 13560-13573). A 0.495 mL sample of TTR (7.6 μM (0.4 mg/mL) in 10 mM sodium phosphate, 100 mM KCl, and 1 mM EDTA at pH 7.0) was incubated with 5 μL of isoflavone or flavone inhibitor in DMSO (0.76 mM or 1.44 mM). After 30 min, the samples were diluted with 0.5 mL of 200 mM acetate buffer (pH 4.2, final pH 4.4 for WT and V122I, pH 4.8, final pH 5.0 for V30M) containing 100 mM KCl and 1 mM EDTA. Samples were briefly vortexed and then further incubated at 37° C. for 72 h without stirring. The extent of aggregation was probed by turbidity measurements at 350 and 400 nm on an HP 8453 UV-visible spectrometer. Single-time point samples (72 h) were vortexed immediately before the measurement.
Aggregate formation is reported relative to WT or mutant TTR homotetramer where amount of aggregation in the absence of inhibitor is assigned to be 100%.
Blue bars represent data from an aggregate formation assay wherein tetrameric TTR (3.6 μM) is preincubated with inhibitor (3.6 μM or 7.2 μM) for 30 min prior to lowering the pH to 4.4 (72 h). The Y axis in each bar graph (optical density at 350 nm) represents aggregate formation relative to WT TTR (3.6 μM) assigned as 100%.

[2] = target: TTR in human blood plasma (Homo sapiens, UniProt P02766); assay: Plasma selectivity binding to TTR, antibody capture/HPLC method; conditions: 10.8 μM compound in human plasma, 37° C., 18 h; maximum 2.0; lower limit because of wash losses
[3] = target: T2, V122I TTR (Homo sapiens, UniProt P02766, V142I); assay: Urea-mediated tetramer dissociation by far-UV circular dichroism; type: biochemical; conditions: V122I TTR 1.8 μM, 6.0 M urea, after 120 h
T2 construct: made in house; host or cells: E. coli
Method: (§1) TTR (400 μL, 0.25 mg/mL; 4.5 μM tetramer) was pre-incubated with genistein at concentrations of either 4.5 or 9.0 μM for 18 h at 25° C. Urea (10M, 600 μL) in 50 mM phosphate buffer (pH 7.0) containing 100 mM KCl, 1 mM EDTA and 1 mM DTT was added to the samples immediately prior to the first measurement (1.0 mL total volume, 6.0 M urea, 0.1 mg/mL TTR (1.8 μM tetramer) final concentration). Circular dichroism spectra were recorded as a function of time up to 120 h (25° C.) using a wavelength scan from 220 to 214 nm, sampling every 0.5 nm. The signal from 218 to 215 was averaged and plotted to determine the fraction of TTR tetramer that was dissociated and unfolded at each time point.
(§2) Genistein was further tested for its ability to kinetically stabilize tetrameric TTR against urea-induced dissociation. Since dissociation of the tetramer is required for urea-induced monomer denaturation, it is possible to monitor rate-limiting tetramer dissociation by linking this process to fast monomer unfolding in a post-transition urea concentration (6 M), rendering the process irreversible. The rate and extent of tetramer dissociation at different small molecule concentrations was monitored by far-UV CD spectroscopy in 6.0 M urea. Genistein exerts its most dramatic effect on the amplitude of WT TTR tetramer dissociation (FIG. 4A). At equimolar amounts of genistein and WT TTR (1.8 μM), only 10% of the protein dissociates and unfolds after 120 h, implying that the remainder is stabilized as a consequence of small molecule binding. This compares to 33% of dissociation for V122I (FIG. 4C, triangles) and 87% V30M (FIG. 4B, triangles) dissociating under identical conditions. When the inhibitor concentration (3.6 μM) is twice that of TTR (1.8 μM), only 1% of WT TTR (FIG. 4A, diamonds), 18% of V122I (FIG. 4C, diamonds), and 70% of V30M (FIG. […]) dissociates over the same time period.
(§3) FIG. 4 illustrates a series of graphs showing the rate of urea-mediated tetramer dissociation (6 M) curves for (A) WT (circles), (B) V30M, and (C) V122I TTR. TTR dissociation is slowed dramatically when WT and the variants are preincubated with genistein (1.8 μM, triangles; 3.6 μM, diamonds). The far-UV CD ellipticity at 214-218 nm was compared to that of WT to determine the fraction of TTR that dissociated and rapidly unfolded at each time point.

[4] = target: T3, V30M TTR (Homo sapiens, UniProt P02766, V50M); assay: as above; type: biochemical; conditions: V30M TTR 1.8 μM, 6.0 M urea, after 120 h
T3 construct: made in house; host or cells: E. coli
Method: as §1, §2, §3

[5] = target: T1, WT TTR; assay: as above; type: biochemical; conditions: WT TTR 1.8 μM, 6.0 M urea, after 120 h
Method: as §1, §2, §3

[6] = tested on: Caco-2 cells; conditions: Caco-2 cells and perfused rat intestinal models; cited from earlier work
[7] = even at the relatively high concentrations employed; cited from earlier work
[8] = cited from earlier work
[9] = target: T1, WT TTR; assay: Isothermal titration calorimetry; type: binding
Method: The dissociation constants characterizing the binding of genistein to WT TTR were determined using a Microcal isothermal titration calorimeter (Microcal Inc., Northhampton, Mass.). A solution of the small molecule (final concentration 432 μM in 25 mM Tris (pH 8.0) containing 100 mM KCl, 1 mM EDTA, 10% EtOH,) was prepared and titrated into an ITC cell containing WT TTR (12 μM in 25 mM Tris (pH 8.0) containing 100 mM KCl, 1 mM EDTA, 10% EtOH). For all runs, a small preliminary injection was followed by identical injections (2.0-5.0 μL) up to a ligand:protein molar ratio of at least 4:1. The data were fit by a nonlinear least squares approach to either an identical binding sites model, or a sequential interacting binding sites model (Foss, T. R.; et al. J. Mol. Biol. 2005, in press) utilizing Microsoft Excel (Microsoft Corporation, Redmond, Wash.) with the Solver plugin.
Isothermal titration calorimetry was employed to determine the dissociation constants of the binding of genistein to WT TTR at pH 8.0 (25° C.). Integration of the thermogram after subtraction of blanks yielded a binding isotherm that fit equally well to a model of two sequential interacting binding sites with negative cooperativity or two identical non-interacting sites. The fit to sequential binding sites yielded dissociation constants of Kd1=40±25 nM, Kd2=1400±170 nM. Fitting the data to identical binding sites gave Kd1=Kd2=845±45 nM with an occupancy of 1.92±0.07.

Which “decrease in WT TTR aggregation inhibition relative to genistein” value ([1]; pH 4.4) does the source give for `O=c1cc(-c2ccc(O)cc2)oc2cc(O)cc(O)c12` [apigenin] here?
The value was 2 fold.

Which “plasma selectivity: binding stoichiometry to TTR” value [2] does the source give for `O=c1c(-c2ccc(O)cc2)coc2cc(O)ccc12` [daidzein, reference compound] here?
Its value is ≥ 0.75 equivalents per tetramer.

And the “decrease in aggregation inhibition potency relative to genistein” value ([1]; inhibitor 7.2 μM, twice that of TTR)?
Its value is “approximately 4 fold”.

With `O=c1c(-c2ccc(O)cc2)coc2cc(O)cc(O)c12` [genistein] as the molecule, how does the “protein that dissociates and unfolds” value ([3]; genistein 1.8 μM) read?
Its value is 33%.

And the “protein that dissociates and unfolds” value ([3]; genistein 3.6 μM)?
The value was 18%.

What about the “protein that dissociates and unfolds” value ([4]; genistein 1.8 μM) of the same molecule?
Its value is 87%.

And the “protein that dissociates and unfolds” value ([4]; genistein 3.6 μM)?
The value was 70%.

And the “protein that dissociates and unfolds” value ([5]; genistein 1.8 μM)?
Its value is 10%.

What about the “protein that dissociates and unfolds” value ([5]; genistein 3.6 μM) of the same molecule?
The value was 1%.

And the intestinal absorption [6]?
Its intestinal absorption is “efficiently absorbed into the intestine”.

What about the “adverse health effects in toxicity studies” value [7] of the same molecule?
Its value is “does not appear to cause adverse health effects”.

And the “plasma selectivity: binding stoichiometry to TTR” value [2]?
Its value is 1.45 equivalents per tetramer.

And the “in vivo plasma concentrations of genistein” value ([8]; dose of 16 mg/kg of body weight, oral)?
Its value is 0.1 to 8 µM.

What about the half-life in plasma ([8]; men) of the same molecule?
Its half-life in plasma is 3.2 h.

What about the half-life in plasma ([8]; women) of the same molecule?
Its half-life in plasma is 3.8 h.

What about the Kd ([9]; Kd1, two sequential interacting binding sites model (negative cooperativity), pH 8.0, 25° C.) of the same molecule?
The Kd was 0.04 µM.

What about the Kd ([9]; Kd1=Kd2, two identical non-interacting sites model, pH 8.0, 25° C.) of the same molecule?
The Kd was 0.845 µM.

And the Kd ([9]; read-out: Kd2, negative cooperativity, ITC)?
The Kd was 1.4 µM.

What about the Kd ([9]; read-out: Kd2, two sequential interacting binding sites model (negative cooperativity), pH 8.0, 25° C.) of the same molecule?
The Kd was 1.4 µM.

With `O=c1c(-c2ccc(O)cc2)coc2cc(O[C@@H]3O[C@H](CO)[C@@H](O)[C@H](O)[C@H]3O)cc(O)c12` [genistin, reference compound] as the molecule, how does the “permeability, lower than corresponding aglycone (genistein)” value [6] read?
The value was “approximately 5 fold”.
